Measured values from patent publication US20120177693A1, “DEEP LUNG PULMONARY DELIVERY OF TREPROSTINIL” (Aradigm Corporation, priority 2008, published 2012).
Several values for one entry are separate records, joined by “and”; a condition that tells them apart may be missing. Identical values can stand only once.

Assay: Gamma scintigraphy of 99mTc-DTPA radiolabeled treprostinil sodium inhaled via AERx Essence System or Nebu-Tec Optineb nebulizer, two-way crossover, 14 healthy male subjects
Type: in vivo, human
Settings: for Calculated Lung Dose: monosodium salt; for Dose (calculated dose to lung): Median
Description: This was an open label study conducted in a single-center, using a randomized, two-way crossover design. Sixteen healthy adult male subjects were to be enrolled to receive study treatments. Upon provision of written informed consent, each study candidate underwent a pre-study evaluation and screening to determine eligibility to participate.
On each of two dosing days, eligible subjects underwent dosing with ^99mTc-labeled treprostinil sodium using either the AERx Essence System or the Nebu-Tec Optineb nebulizer. Following their initial study dose, subjects underwent a washout period of approximately 48 hours before completing a second (crossover) study dose.
Immediately following each study dose, subjects underwent gamma scintigraphy and multiple samplings of venous blood to characterize treprostinil lung deposition and plasma pharmacokinetics.
Subjects also underwent a Krypton-81m (^81mKr) gas ventilation imaging procedure. This procedure could have been performed on any dosing day followed by a 30 minute washout before any of the aerosol dosing procedures, if there were logistical/scheduling problems, ventilation imaging could have been done after dosing. Alternatively the ^81mKr ventilation scan could have been performed on a separate visit. Additionally transmission images were also acquired this could have been performed on any dosing day prior to any of the aerosol dosing procedures or on a separate visit
A single “bulk” treprostinil sodium formulation (600 μg/mL) was used for both the Nebu-Tec Optineb nebulizer and the AERx Essence. The bulk drug solutions were diluted by the addition of ^99mTc-DTPA (2000 MBq/mL) at a ratio of 19:1, i.e. 0.05 mL of ^99mTc-DTPA was added to 0.950 mL of bulk drug solution. Each mL of the radiolabeled drug solutions therefore contained 100 MBq of ^99mTc-DTPA and 570 μg of treprostinil. The radiolabel ^99mTc as ^99mTc-DTPA was acquired from an approved supplier (i.e., the Medical Physics Department, University Hospital of Wales, Heath, Cardiff [Manufacturers License Number: MS/IMP18523]).
In this study, the radiolabel marker (^99mTc-DTPA) deposition profiles obtained following administration of a radiolabeled treprostinil sodium formulation will be evaluated using gamma to assess the performance for the two delivery systems. Gamma scintigraphy offers a precise and accurate method of evaluating the deposition of an inhaled radiolabeled aerosol in the oropharynx and lung.
To compare the emitted dose, delivered lung dose, and the central-to-peripheral (sC/P) lung deposition of radiolabeled treprostinil sodium delivered via the AERx Essence System versus the Nebu-Tec Optineb nebulizer using gamma scintigraphy.
In addition the following secondary efficacy variables were determined, the dose (μg) of treprostinil deposited in the lung, the percent dose (emitted and loaded) of radiolabeled treprostinil sodium in the oropharyngeal region from both devices, the percent loaded dose remaining in both devices and associated equipment e.g. mouthpiece.
Scintigraphic data were used to determine the fraction of the loaded dose delivered to the lung which was subsequently utilised to estimate the lung dose in terms of μg of Treprostinil. For AERx, the calculation of lung dose was derived by normalising the emitted dose to lung for the fraction (%) of the loaded dose retained post-administration i.e. within the device and dosage forms. The actual dose within the AERx strips (a single dose consisted of two strips) was calculated from the nominal treprostinil concentration adjusted for the actual concentration determined by HPLC assay of the stock radiolabeled drug solutions on each dosing day (see Table 14.2.1.5).
The Optineb device contained a drug reservoir (nebuliser cup) from which each dose (six separate puffs) was metered. To determine the dose available to the subject an in vitro test to collect a single emitted dose (ED) was performed for each device following subject dosing.

Structure (SMILES): CCCCC[C@H](O)CC[C@@H]1[C@H]2Cc3cccc(OCC(=O)[O-])c3C[C@H]2C[C@H]1O.[Na+] [treprostinil, (1R,2R,3aS,9aS)-[[2,3,3a,4,9,9a-Hexahydro-2-hydroxyl-1-[(3S)-3-hydroxyoctyl]-1H-benz[f]inden-5-yl]oxy]acetic acid monosodium salt]
- Greater treprostinil lung dose for AERx than for the nebulizer (AERx vs nebulizer): 20%
- Calculated Lung Dose (via AERx, Max, listed as Treprostinil): 30.76 µg
- Calculated Lung Dose (via AERx, Max): 30.756 µg
- Calculated Lung Dose (via AERx, Mean, listed as Treprostinil): 26.07 µg
- Calculated Lung Dose (via AERx, Mean): 26.07 µg and 26.072 µg
- Dose (calculated dose to lung) (via AERx): 27.383 µg
- Calculated Lung Dose (via AERx, Min, listed as Treprostinil): 12.77 µg
- Calculated Lung Dose (via AERx, Min): 12.770 µg
- Calculated Lung Dose (via Optineb, Max, listed as Treprostinil): 30.69 µg
- Calculated Lung Dose (via Optineb, Max): 30.691 µg
- Calculated Lung Dose (via Optineb, Mean, listed as Treprostinil): 19.58 µg
- Calculated Lung Dose (via Optineb, Mean): 19.58 µg and 19.579 µg
- Dose (calculated dose to lung) (via Optineb): 18.470 µg
- Calculated Lung Dose (via Optineb, Min, listed as Treprostinil): 9.30 µg
- Calculated Lung Dose (via Optineb, Min): 9.296 µg
